Assay results taken from US20020055528A1, “Artemisinin analogs having antimalarial, antiproliferative, and antitumor activities and chemoselective methods of making the same” (priority 1999, published 2002).

What was measured:
Type in all cases: cell-based
NCI-H23 = assay: NCI 60 cell line screen (SRB), Non-Small Cell Lung Cancer
SK-OV-3 = assay: NCI 60 cell line screen (SRB), Ovarian Cancer
SF-295 = assay: NCI 60 cell line screen (SRB), CNS Cancer
BT-549 = assay: NCI 60 cell line screen (SRB), Breast Cancer
UACC-62 = assay: NCI 60 cell line screen (SRB), Melanoma
SK-MEL-5 = assay: NCI 60 cell line screen (SRB), Melanoma
[1] = tested on: MB231/ATCC (second line of the wrapped label, with values of its own); assay: NCI 60 cell line screen (SRB), Breast Cancer
MALME-3M = assay: NCI 60 cell line screen (SRB), Melanoma
EKVX = assay: NCI 60 cell line screen (SRB), Non-Small Cell Lung Cancer
MCF7 = assay: NCI 60 cell line screen (SRB), Breast Cancer
786-0 = assay: NCI 60 cell line screen (SRB), Renal Cancer
SNB-75 = assay: NCI 60 cell line screen (SRB), CNS Cancer
HCT-15 = assay: NCI 60 cell line screen (SRB), Colon Cancer
NCI-H522 = assay: NCI 60 cell line screen (SRB), Non-Small Cell Lung Cancer
LOX IMVI = assay: NCI 60 cell line screen (SRB), Melanoma
NCI/ADR-RES = assay: NCI 60 cell line screen (SRB), Breast Cancer
SF-268 = assay: NCI 60 cell line screen (SRB), CNS Cancer
COLO 205 = assay: NCI 60 cell line screen (SRB), Colon Cancer; conditions: PG=+50
NCI-H460 = assay: NCI 60 cell line screen (SRB), Non-Small Cell Lung Cancer
CAKI-1 = assay: NCI 60 cell line screen (SRB), Renal Cancer
OVCAR-4 = assay: NCI 60 cell line screen (SRB), Ovarian Cancer
OVCAR-3 = assay: NCI 60 cell line screen (SRB), Ovarian Cancer; conditions: PG=0
IGROVI = assay: NCI 60 cell line screen (SRB), Ovarian Cancer
HCC-2998 = assay: NCI 60 cell line screen (SRB), Colon Cancer
HCT-116 = assay: NCI 60 cell line screen (SRB), Colon Cancer
SW-620 = assay: NCI 60 cell line screen (SRB), Colon Cancer
MDA-MB231/ATCC = assay: NCI 60 cell line screen (SRB), Breast Cancer; conditions: MDA- (first line of MDA-MB231/ATCC)
TK-10 = assay: NCI 60 cell line screen (SRB), Renal Cancer
KM12 = assay: NCI 60 cell line screen (SRB), Colon Cancer
MDA-MB-435 = assay: NCI 60 cell line screen (SRB), Breast Cancer
NCI-H322M = assay: NCI 60 cell line screen (SRB), Non-Small Cell Lung Cancer
HL-60(TB) = assay: NCI 60 cell line screen (SRB), Leukemia
OVCAR-8 = assay: NCI 60 cell line screen (SRB), Ovarian Cancer
NCI-H226 = assay: NCI 60 cell line screen (SRB), Non-Small Cell Lung Cancer
OVCAR-5 = assay: NCI 60 cell line screen (SRB), Ovarian Cancer
RPMI-8226 = assay: NCI 60 cell line screen (SRB), Leukemia; conditions: Table IV (LC50, PG=−50)

Structure (SMILES): CC1=C(C=Cc2cccc(C=CC3=C(C)C4CCC(C)C5CCC6(C)OOC45C(O3)O6)c2)OC2OC3(C)CCC4C(C)CCC1C24OO3 (stereo not drawn) [VII-h]
- Log10TGI (NCI-H23; PG=0): >−4.00 log10M
- log10 GI50 or LC50 (see conditions) (NCI-H23; PG=+50): −6.35 log10M
- log10 GI50 or LC50 (see conditions) (NCI-H23; Table IV (LC50, PG=−50)): >−4.00 log10M
- Log10TGI (SK-OV-3; PG=0): >−4.00 log10M
- Log10GI50 (SK-OV-3; Table IV (LC50, PG=−50)): >−4.00 log10M
- Log10TGI (SF-295; PG=0): >−4.00 log10M
- Log10GI50 (SF-295; PG=+50): −6.39 log10M
- Log10TGI (BT-549; PG=0): −7.10 log10M
- Log10GI50 (BT-549; PG=+50): <−8.00 log10M
- Log10GI50 (BT-549; Table IV (LC50, PG=−50)): >−4.00 log10M
- Log10TGI (UACC-62; PG=0): >−4.00 log10M
- Log10GI50 (UACC-62; PG=+50): −6.91 log10M
- Log10GI50 (UACC-62; Table IV (LC50, PG=−50)): >−4.00 log10M
- Log10TGI (SK-MEL-5; PG=0): −6.21 log10M
- Log10 GI50 or LC50 (SK-MEL-5; PG=+50): −7.36 log10M
- Log10TGI ([1]; PG=0): −5.72 log10M
- Log10GI50 ([1]; PG=+50): −7.31 log10M
- Log10GI50 ([1]; Table IV (LC50, PG=−50)): >−4.00 log10M
- Log10TGI (MALME-3M; PG=0): −4.17 log10M
- Log10GI50 (MALME-3M; PG=+50): −6.94 log10M
- Log10GI50 (MALME-3M; Table IV (LC50, PG=−50)): >−4.00 log10M
- Log10TGI (EKVX; PG=0): >−4.00 log10M
- Log10GI50 (EKVX; PG=+50): −7.42 log10M
- Log10GI50 (EKVX; Table IV (LC50, PG=−50)): >−4.00 log10M
- Log10TGI (MCF7; PG=0): −4.31 log10M
- Log10GI50 (MCF7; PG=+50): −7.33 log10M
- Log10GI50 (MCF7; Table IV (LC50, PG=−50)): >−4.00 log10M
- Log10TGI (786-0; PG=0): >−4.00 log10M
- Log10GI50 (786-0; PG=+50): −7.02 log10M
- Log10GI50 (786-0; Table IV (LC50, PG=−50)): >−4.00 log10M
- Log10TGI (SNB-75; PG=0): −5.08 log10M
- Log10 GI50 (PG=+50) or LC50 (PG=−50) (SNB-75; PG=+50): −6.99 log10M
- Log10 GI50 (PG=+50) or LC50 (PG=−50) (SNB-75; Table IV (LC50, PG=−50)): >−4.00 log10M
- Log10TGI (HCT-15; PG=0): >−4.00 log10M
- log10 GI50 (PG=+50) or LC50 (PG=−50), per row condition (HCT-15; PG=+50): −7.39 log10M
- log10 GI50 (PG=+50) or LC50 (PG=−50), per row condition (HCT-15; Table IV (LC50, PG=−50)): >−4.00 log10M
- Log10TGI (NCI-H522; PG=0): >−4.00 log10M
- Log10GI50 (NCI-H522; PG=+50): −7.22 log10M
- Log10GI50 (NCI-H522; Table IV (LC50, PG=−50)): >−4.00 log10M
- Log10TGI (LOX IMVI; PG=0): −5.67 log10M
- Log10GI50 (LOX IMVI; PG=+50): −7.40 log10M
- Log10GI50 (LOX IMVI; Table IV (LC50, PG=−50)): −4.15 log10M
- Log10TGI (NCI/ADR-RES; PG=0): −4.40 log10M
- Log10GI50 (NCI/ADR-RES; PG=+50): −5.76 log10M
- Log10GI50 (NCI/ADR-RES; Table IV (LC50, PG=−50)): >−4.00 log10M
- Log10TGI (SF-268; PG=0): >−4.00 log10M
- Log10GI50 (SF-268; PG=+50): −6.86 log10M
- Log10GI50 (COLO 205): −7.88 log10M
- Log10TGI (NCI-H460; PG=0): >−4.00 log10M
- Log10 GI50 or Log10 LC50 (NCI-H460; PG=+50): −5.59 log10M
- Log10TGI (CAKI-1; PG=0): >−4.00 log10M
- Log10GI50 (CAKI-1; PG=+50): −6.28 log10M
- Log10GI50 (CAKI-1; Table IV (LC50, PG=−50)): >−4.00 log10M
- Log10GI50 (OVCAR-4; OVCAR-4, PG=+50): −7.51 log10M
- Log10TGI (OVCAR-4; OVCAR−4, PG=0): −6.31 log10M
- Log10GI50 (OVCAR-4; Table IV (LC50, PG=−50), OVCAR−4): >−4.00 log10M
- Log10TGI (OVCAR-3): >−4.00 log10M
- Log10TGI (IGROVI; PG=0): −4.20 log10M
- Log10GI50 (IGROVI; Table IV (LC50, PG=−50)): >−4.00 log10M
- Log10TGI (HCC-2998; PG=0): >−4.00 log10M
- Log10GI50 (HCC-2998; PG=+50): −6.57 log10M
- Log10TGI (HCT-116; PG=0): −5.38 log10M
- Log10 GI50 (PG=+50) or Log10 LC50 (PG=−50), as given per row condition (HCT-116; PG=+50): −7.53 log10M
- Log10 GI50 (PG=+50) or Log10 LC50 (PG=−50), as given per row condition (HCT-116; Table IV (LC50, PG=−50)): >−4.00 log10M
- Log10TGI (SW-620; PG=0): >−4.00 log10M
- Log10GI50 (SW-620; PG=+50): −7.59 log10M
- Log10TGI (MDA-MB231/ATCC; PG=0): −5.35 log10M
- Log10 GI50 or LC50 (per conditions) (MDA-MB231/ATCC; PG=+50): −6.49 log10M
- Log10 GI50 or LC50 (per conditions) (MDA-MB231/ATCC; Table IV (LC50, PG=−50)): >−4.00 log10M
- Log10TGI (TK-10; PG=0): >−4.00 log10M
- Log10GI50 (TK-10; PG=+50): −7.22 log10M
- Log10GI50 (TK-10; Table IV (LC50, PG=−50)): >−4.00 log10M
- Log10TGI (KM12; PG=0): >−4.00 log10M
- Log10GI50 (KM12; PG=+50): −7.81 log10M
- Log10GI50 (KM12; Table IV (LC50, PG=−50)): >−4.00 log10M
- Log10TGI (MDA-MB-435; MDA-MB-435, PG=0): >−4.00 log10M
- Log10GI50 (MDA-MB-435; MDA-MB−435, PG=+50): −7.29 log10M
- Log10GI50 (MDA-MB-435; Table IV (LC50, PG=−50), MDA-MB-435): >−4.00 log10M
- Log10TGI (NCI-H322M; PG=0): −5.88 log10M
- Log10GI50 (NCI-H322M; PG=+50): −7.56 log10M
- Log10TGI (HL-60(TB); PG=0): −7.59 log10M
- Log10GI50 (HL-60(TB); PG=+50): −7.59 log10M
- Log10GI50 (HL-60(TB); Table IV (LC50, PG=−50)): >−4.00 log10M
- Log10TGI (OVCAR-8; PG=0): >−4.00 log10M
- Log10GI50 (OVCAR-8; PG=+50): −7.33 log10M
- Log10GI50 (OVCAR-8; Table IV (LC50, PG=−50)): >−4.00 log10M
- Log10TGI (NCI-H226; PG=0): >−4.00 log10M
- Log10GI50 (NCI-H226; PG=+50): >−4.00 log10M
- Log10GI50 (NCI-H226; Table IV (LC50, PG=−50)): >−4.00 log10M
- Log10TGI (OVCAR-5; PG=0): >−4.00 log10M
- Log10GI50 (OVCAR-5; PG=+50): −7.12 log10M
- Log10GI50 (OVCAR-5; Table IV (LC50, PG=−50)): >−4.00 log10M
- Log10GI50 (RPMI-8226): >−4.00 log10M
